SMILES strings stand for the structures.

The source of these data is patent publication US4988723A, “Benzopyran derivatives and their use as anti-hypertensives” (Fujisawa Pharmaceutical Co., Ltd., priority 1988, dated 1991).

The test system of assay [1] is normotensive rats (male Wistar strain). Description: Effect on normotensive rats (hypotensive activity, mean arterial pressure after intravenous dosing). In kind it is in vivo, rat. Particulars: 1.0 mg/kg intravenously. As for the experimental part: Male Wistar strain rats aged 10-11 weeks, weighing about 250 g were used after going unfed overnight. Under ether anesthesia, polyethylene cannula were inserted in the femoral artery for measuring blood pressure and in the femoral vein for injection of the test compound. About 2 hours after the operation, test compound was given intravenously. Blood pressure was measured at the femoral artery by means of a pressure transducer and recorded as electrically integrated values of mean arterial pressure.

Assay [2] concerns spontaneous hypertensive rats. Put plainly: Effect on spontaneous hypertensive rats (hypotensive activity, mean blood pressure after oral dosing). In kind it is in vivo, rat. As for the experimental part: 14 to 17-week-old male spontaneous hypertensive rats with mean arterial blood pressure of about 150 mmHg, weighing 300-375 g, were used. The animals were cannulated in the left femoral artery and the mean blood pressure and heart rate were measured with a pressure-transducer. The drugs were given orally. The animals were deprived of food for about 18 hours before oral dosing. The test drugs were suspended in 0.5% methylcellulose, and given in oral dose of 0.1 mg/kg and 1.0 mg/kg.

Take `CN1CCN([C@@H]2c3cc(C#N)ccc3OC(C)(C)[C@H]2O)C1=NC#N` (relative stereo) [trans-4-(2-Cyanoimino-3-methylimidazolidin-1-yl)-3,4-dihydro-3-hydroxy-2,2-dimethyl-2H-1-benzopyran-6-carbonitrile]: in assay [1], the “Effect Max (maximum decrease of blood pressure, mean ratio)” value turned out to be 48.0%.
Take `CC1(C)Oc2ccc(C#N)cc2[C@@H](N2CCSC2=NC#N)[C@@H]1O` [(3S,4R)-4-(2-Cyanoiminothiazolidin-3-yl)-3,4-dihydro-3-hydroxy-2,2-dimethyl-2H-1-benzopyran-6-carbonitrile]: in assay [2] (0.1 mg/kg orally), the “Effect max (maximum decrease of blood pressure, mean ratio)” value was 20.7% and the “T 1/2 (duration of half of maximum decrease of blood pressure)” value was found to be 2.25 h. Also, in assay [2] (1.0 mg/kg orally), the “Effect max (maximum decrease of blood pressure, mean ratio)” value is 60.0% and the “T 1/2 (duration of half of maximum decrease of blood pressure)” value stood at 3.75 h.
